Molecular target: T1, gp41 of HIV-1 (Human immunodeficiency virus type 1 group M subtype B, UniProt P03375)
T1 construct: cell-cell fusion induced by gp41 of HIV-1 expressed in CHO cells; expressed in transfected cells; host or cells: CHO cells (effector), co-cultured with CD4-expressing HeLa cells (target)
Format: cell-based, HIV-1 (BH10 isolate)
Details: 20 nM T-20, positive inhibition control, 37° C., 16 hours
Description: The effect has been measured as the inhibition of cell-cell fusion induced by gp41 of HIV-1 expressed in CHO cells, which takes place when they are mixed with CD4 receptor-expressing HeLa cells (BH10 isolate: Gene Bank access number M15654). The oligopeptide concentration was 5 μM and the temperature was 37° C. Incubation in the cell culture medium (GMEM-S supplemented with 1 mM sodium pyruvate and 0.4 mM methionine sulfoximine) was performed for 16 hours. The bars correspond to the number of nuclei in syncytial plates (fused cells with more than 4 nuclei) per field after this time. The means of 4 individual measurements plus the standard deviations are shown.
As a positive inhibition control, cells treated with 20 nM of T-20 (enfuvirtide) are shown. The sample, in the sole presence of gqidev, was processed following the protocol described in the preceding figure.
The lines represent adjustments to hyperbolic-type functions. The assay, in the presence of increasing quantities of oligopeptides, was performed and quantified in accordance with the description of FIG. 3. […]
It was added, at a concentration of 5 μM (micromolar), to the cell culture medium (GMEM-S supplemented with 1 mM sodium pyruvate and 0.4 mM methionine sulfoximine). […] The activity of gp41 is detected by the formation of multi-nucleated cells (CTL panel) produced by the fusion of the plasma membranes.

T1 sequence (P03375 512-856): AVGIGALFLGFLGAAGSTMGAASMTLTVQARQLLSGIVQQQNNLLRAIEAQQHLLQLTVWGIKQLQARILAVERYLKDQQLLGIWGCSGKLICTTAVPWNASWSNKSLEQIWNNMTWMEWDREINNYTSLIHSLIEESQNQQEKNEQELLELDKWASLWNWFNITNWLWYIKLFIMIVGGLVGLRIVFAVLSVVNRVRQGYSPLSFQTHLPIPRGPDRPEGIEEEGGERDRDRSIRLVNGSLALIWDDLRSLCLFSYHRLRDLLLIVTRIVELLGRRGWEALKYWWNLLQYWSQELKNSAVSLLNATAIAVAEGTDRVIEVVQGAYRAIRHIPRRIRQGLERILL

For enfuvirtide, the “inhibitory effect on gp41 activity (cell-cell fusion, formation of syncytia)” value was “comparable inhibition of gp41”.

— US8110545B2, “Non-proteolysable oligopeptides that inhibit glycoprotein GP41 of the aids virus” (priority 2005, dated 2012)
